For this series, the system named is acylase. Kind of series: Enzyme addition: decomposition of capsaicin by acylase, HPLC. The format is physicochemical. The note with it: acylase 0.05 u/ml, 50 mM tris buffer, 37° C., capsaicin 0.0028%, relative to beginning of shaking. The procedure:
Each of the samples obtained in Reference Example 2 and Reference Comparative Example 2 was diluted 10-fold with a 50 mM tris buffer (capsaicin concentration: 0.0028%). To this liquid, an acylase was added at a concentration of 0.05 u/ml. The mixture was shaken in a constant-temperature water bath at 37° C. to allow the reaction of the enzyme to proceed.
Meanwhile, as Reference Example, a capsaicin reagent (capsaicin content: 95% or more) manufactured by SIGMA was diluted with a 50 mM tris buffer such that the capsaicin concentration was the same as that (0.0028%) in Reference Example 2 and Reference Comparative Example 2. To this liquid, an acylase was added at a concentration of 0.05 u/ml. The mixture was shaken in a constant-temperature water bath at 37° C. in the same manner as in Reference Example 2 and Reference Comparative Example 2, to allow the reaction of the enzyme to proceed.
To 2 ml of each sample in which the reaction of the enzyme was allowed to proceed for 0 (at the beginning of the shaking) minutes, 30 minutes, or 60 minutes, 3 ml of water was added, and thus the volume thereof was adjusted to 5 ml. Moreover, 1 ml of 2.5 N NaOH was added thereto, followed by heating in boiling water at 100° C. for 10 minutes. After the heating, 20 ml of methanol was added thereto. […] For the HPLC measurement, a fluorescence detector was used. […]

Turning to `COc1cc(CNC(=O)CCCC/C=C/C(C)C)ccc1O` [Reference Example, capsaicin], the “ratio of capsaicin remaining after the enzymatic reaction for 60 minutes” value is given as 2.0%.
